# Source: ChEMBL document CHEMBL4177526, “Discovery and structure activity relationship of the first potent cryptosporidium FIKK kinase inhibitor” (Bioorg Med Chem, 2017)
# Assay: Ratio of EC50 for antiparasitic activity against Cryptosporidium parvum Iowa oocysts infected in human HCT8 cells to IC50 for Cryptosporidium parvum CDPK1
# Assay type: functional
structure (smiles),measurement,value
Cc1cccc(-c2nc(N)sc2-c2ccc3ncccc3n2)c1,Ratio,14
